From ChEMBL document CHEMBL1124338, “Amine peroxides as potential antimalarials” (J Med Chem, 1989)

Key:
Mus musculus [1] = experiment: Compound was evaluated for (T-C) survival time of the treated mice (Mus musculus) against Plasmodium berghei at 40 mg/Kg; type: functional
Plasmodium falciparum [2] = experiment: In vitro antimalarial activity against Plasmodium falciparum D6; type: functional, organism-based
Mus musculus [3] = experiment: Compound was evaluated for (T-C) survival time of the treated mice (Mus musculus) against Plasmodium berghei at 640 mg/kg; type: functional
Mus musculus [4] = experiment: Compound was evaluated for (T-C) survival time of the treated mice (Mus musculus) against Plasmodium berghei at 160 mg/kg; type: functional
Plasmodium falciparum [5] = experiment: In vitro antimalarial activity against Plasmodium falciparum W-2; type: functional, organism-based

SMILES | T-C (Mus musculus [1]) [days] | IC50 (Plasmodium falciparum [2]) [µM] | T-C (Mus musculus [3]) [days] | T-C (Mus musculus [4]) [days] | IC50 (Plasmodium falciparum [5]) [µM]
CCN(COOC(C)(C)C)c1ccccc1 | 0.5 | 54 | 1.3 | 0.3 | 39.4
CC(C)(C)OOCN1CCN(c2ccccc2)CC1 | 0.9 | 25.7 | 0.7 | 0.7 | 39.8
CC(C)(C)OOCN1CCC(c2ccccc2)CC1 | 0.3 | 27.3 | 0.8 | 0.5 | 26.9
CC1CCN(COOC(C)(C)C)CC1 | 0.3 | 19.7 | 0.7 | 0.1 | 25.2
CC(C)(C)OO [TERT-BUTYL HYDROPEROXIDE] | 0.1 | 203 | 0.7 | 0.3 | 240
CN(COOC(C)(C)C)C1CCCCC1 | 0.5 | 25.1 | 0.7 | 1.3 | 26.6
